Measurements taken from EP4786454A1, “HETEROARYL DERIVATIVE AND USE THEREOF” (priority 2023, dated 2025).

Assays:
[1] = Plasma protein binding rate, equilibrium dialysis (human plasma); assay type: in vitro ADME; details: dialysis 4 hours at 37 °C, read-out: Unbound PPB%
Protocol: The protein binding rates of the compounds in the plasma of CD-1 mice, Sprague-Dawley rats, beagle dogs, cynomolgus monkeys, and human were determined using equilibrium dialysis method.
Commercially available plasma, dual-layer dialysis membrane, and equilibrium dialysis device.
The dual-layer dialysis membrane was soaked in ultrapure water for about 1 hour, removed and then divided into two parts. It was then soaked in an ethanol:water (20:80, v:v) solution for 20 minutes or placed at 2 to 8 °C, and it was valid for 1 month. Before starting the assay, the dialysis membrane was rinsed twice with ultrapure water and then soaked in ultrapure water for another 20 minutes for later use.
On the day of assay, the frozen plasma of CD-1 mice, Sprague-Dawley rats, beagle dogs, cynomolgus monkeys, and human was thawed in running cold tap water. After the plasma was completely thawed, the plasma was centrifuged at 3220×g for 5 minutes, and the suspended substances and precipitates in it were removed. The pH of the plasma was determined. The plasma with a pH in the range of 7.4 ± 0.1 was directly used, or the plasma with a pH in the range of 7.4 ± 0.1 after an adjustment with 1% phosphoric acid or 1M sodium hydroxide was used.
Preparation process of plasma samples: 597 µL of blank plasma from each of the above five species was taken, respectively. 3 µL of a compound or warfarin working solution was added, and the mixture was mixed thoroughly to give a plasma sample with a compound concentration of 2 µM and a warfarin concentration of 2 µM (n=1). The concentration of the organic phase DMSO was 0.5%. The sample was thoroughly mixed before proceeding to the next step.
Preparation process of T0 samples: 50 µL of a plasma sample containing the compound and warfarin was transferred to a sample receiving plate (n=3), and 50 µL of blank PBS was immediately added. Then, 500 µL of stop solution was added to the T0 sample of the compound and warfarin, and the mixture was stored at 2 to 8 °C, waiting to be processed later together with other dialysis-processed samples.
Dialysis process of plasma samples: 100 µL of a compound (2 µM) and warfarin (2 µM) plasma sample was added to the donor of each dialysis well (n=3), and 100 µL of blank PBS was added to the corresponding receiver of the dialysis well. The dialysis plate was placed in a 5% CO2 incubator, and incubated at 37 °C with shaking at approximately 100 rpm for 4 hours.
After the dialysis was completed, 50 µL of dialysis-processed PBS sample and dialysis-processed plasma sample (n=3) were transferred to a new 96-well plate (sample receiving plate). The corresponding volume of the corresponding blank plasma or PBS was added to the sample to make the final volume of each sample well 100 µL, with a plasma to PBS volume ratio of 1:1. All the samples were analyzed by LC-MS/MS after protein precipitation.
The formulas for calculating the unbound fraction (%Unbound), bound fraction (%Bound) and recovery fraction (%Recovery) of a compound are as follows: %Unbound = 100 ×F / T %Bound = 100 - %Unbound %Recovery = 100 ×(F + T)/ T0 wherein F is the concentration of the compound at the receiver of dialysis; T is the concentration of the compound at the supply end of dialysis; and T0 is the concentration of the compound in the plasma at time zero.

[2] = Stability in liver microsomes (dog); assay type: in vitro ADME, beagle dogs; details: d (beagle dog liver microsomes), 0.5 mg/mL, read-out: MMS Clint
Protocol: (§1) The purpose of this study was to evaluate the phase I metabolic stability of the assay sample in liver microsomes from CD-1 mice, Sprague-Dawley (SD) rats, beagle dogs, cynomolgus monkeys, and human.
(§2) The animal and human liver microsomes used in this assay system were purchased from Xenotech, Corning, or other qualified suppliers.
(§3) Preparation of buffer: 73.21 g of potassium phosphate dibasic trihydrate and 10.78 g of potassium dihydrogen phosphate were dissolved in 4000 mL of ultrapure water. The pH of the solution was adjusted to the range of 7.40 ± 0.10 using 10.0% phosphoric acid or 1.00 M potassium hydroxide. Its final concentration was 100 mM.
(§4) Preparation of working solutions: An assay sample powder was prepared into a 10.0 mM stock solution with DMSO, and then further diluted with a suitable organic solvent. The control compounds testosterone, diclofenac, and propafenone were prepared into 10.0 mM stock solutions using DMSO, and then further diluted with a suitable organic solvent.
(§5) Preparation of liver microsome solution: Microsomes of various species were diluted with 100 mM potassium phosphate buffer to a working solution of 0.56 mg/mL. The final concentration of microsomes in the reaction system was 0.500 mg/mL. Detailed preparation procedures were described in the experimental records.
(§6) Preparation of reduced nicotinamide adenine dinucleotide phosphate (NADPH) solution: An appropriate amount of reduced nicotinamide adenine dinucleotide phosphate was dissolved in magnesium chloride solution, and the mixture was shaken to mix well. The final concentrations in the reaction system were 1.00 mM NADPH and 1.00 mM magnesium chloride, respectively. Detailed preparation procedures were described in the experimental records.
(§7) Preparation of stop solution: The stop solution was prepared using acetonitrile containing internal standards (tolbutamide and labetalol). The prepared stop solution was stored at 2.0 to 8.0 °C in a refrigerator. Detailed preparation procedures were described in the experimental records. […]

[3] = Stability in liver microsomes (rat); assay type: in vitro ADME, Sprague-Dawley (SD) rats; details: r (SD rat liver microsomes), 0.5 mg/mL, read-out: MMS Clint
Protocol: as §1, §2, §3, §4, §5, §6, §7

Compound	fraction unbound at 4 h, 2 µM [1]	CLint scaled at 1 µM [2]	CLint scaled at 1 µM [3]
CC(C)(C)CC(=O)Nc1nc2c(F)cc(C#N)cn2c1C12CC(C1)C2 [Compound 5]	0.231	< 13.8 mL/min/kg	< 17 mL/min/kg
CC(C)(C)CC(=O)Nc1nc2c(F)cc(C#N)cn2c1C1=CCCC1 [Compound 3]	0.109	< 14 mL/min/kg	123 mL/min/kg
CC(C)(C)CC(=O)Nc1nc2c(F)cc(C#N)cn2c1-c1ccc(OC(F)(F)F)cc1 [Compound 1]	0.051	16 mL/min/kg	193 mL/min/kg
